Patent publication US10882856B2 (BeiGene, Ltd., priority 2017, dated 2021)
pEC50, pIC50: −log10 of the molar value.

How the values were obtained:
[1] = target: T1, IDO1 (Homo sapiens, UniProt P14902); assay: Hela cell-based IDO1 assay; conditions: Hela cells
Outline: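 HeLa cells were plated at 8000 per well in 96-well plates containing phenol red-free DMEM with 10% FBS, and after 4 hours compound dilutions made in DMSO were added together with IFN-γ (final 100 ng/mL) and 0.4 mM L-Trp before 48 hours at 37 °C, 5% CO2. Supernatants were deproteinised with trichloroacetic acid, mixed with 2% 4-(dimethylamino)benzaldehyde and read at 480 nm for kynurenine. Four-parameter logistic fits were run in XLfit. Potency was derived from these fits.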

[2] = target: T2, cellular TDO2 in HEK293-TDO2 cells (Homo sapiens, UniProt P48775); assay: 293-TDO2 cell-based assay (Kyn colorimetric); conditions: 48 hours of incubation
T2 construct: expressed in transfected cells; host or cells: HEK293 (ATCC), stably transfected
Outline: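 Kyn formed from L-Trp was read colorimetrically at 480 nm (TCA deproteinisation, then 2% 4-(dimethylamino)benzaldehyde). Compounds were added to 293-TDO2 cells 4 h post-seeding and left 48 h at 37° C. A four-parameter logistic model gave IC50 values.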

[3] = target: T1, IDO1; assay: IDO1 enzymatic assay; assay type: biochemical; parameters: His tag (N); made in house; host or cells: E. coli; conditions: read-out: Enzyme IC50 IDO1
Outline: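 Assays were run in 50 mM potassium phosphate pH 7.5 with 0.1% BSA for 1.5 hours at 24 °C. Each contained 50 nM E. coli-purified, N-terminally His-tagged IDO1, compound, 1.3 mM D-tryptophan, 5 mM L-ascorbic acid, methylene blue and 0.4 mg/mL catalase. IC50 was calculated from remaining enzyme activity across a rising compound series, with activity taken as the slope of N'-formylkynurenine formation read continuously at 321 nm for 1 hour.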

T2 sequence (P48775 whole entry): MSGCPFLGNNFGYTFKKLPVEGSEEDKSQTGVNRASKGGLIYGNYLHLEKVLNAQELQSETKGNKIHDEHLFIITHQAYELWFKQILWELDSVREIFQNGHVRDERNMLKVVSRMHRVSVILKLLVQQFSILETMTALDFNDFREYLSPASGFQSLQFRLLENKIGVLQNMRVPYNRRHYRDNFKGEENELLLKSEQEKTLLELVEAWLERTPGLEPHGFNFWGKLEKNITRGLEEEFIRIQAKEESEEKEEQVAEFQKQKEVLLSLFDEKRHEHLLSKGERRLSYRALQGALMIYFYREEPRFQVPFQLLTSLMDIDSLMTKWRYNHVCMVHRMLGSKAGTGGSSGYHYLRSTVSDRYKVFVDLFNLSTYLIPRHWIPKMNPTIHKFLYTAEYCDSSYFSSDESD
T1 sequence (P14902 whole entry): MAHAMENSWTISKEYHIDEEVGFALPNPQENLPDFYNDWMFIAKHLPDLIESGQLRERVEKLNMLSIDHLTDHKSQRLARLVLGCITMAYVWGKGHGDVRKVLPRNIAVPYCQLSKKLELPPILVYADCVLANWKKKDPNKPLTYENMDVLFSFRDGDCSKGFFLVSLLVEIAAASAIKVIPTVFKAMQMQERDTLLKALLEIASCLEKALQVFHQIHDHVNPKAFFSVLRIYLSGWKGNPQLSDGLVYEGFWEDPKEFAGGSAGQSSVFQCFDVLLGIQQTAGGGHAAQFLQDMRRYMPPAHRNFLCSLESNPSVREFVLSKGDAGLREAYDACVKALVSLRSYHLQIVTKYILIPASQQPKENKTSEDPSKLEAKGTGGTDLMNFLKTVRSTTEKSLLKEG

| SMILES | pEC50 [1] | pEC50 [2] | pIC50 [3] |
| --- | --- | --- | --- |
| OC(c1c(C2CC2)ccc2cncn12)C1CCN(c2ccc3nccc(Cl)c3c2)CC1 (stereo not drawn) [Example D179, (1-(4-chloroquinolin-6-yl)piperidin-4-yl)(6-cyclopropylimidazo[1,5-a]pyridin-5-yl)methanol] | 6.73 | < 5.00 | 7.59 |
| CC(C)c1ccc2cncn2c1[C@@H](O)[C@H]1CC[C@H](c2cccc(F)c2)CC1 (single isomer, unassigned) [Example D167a] | 7.82 | < 5.00 | 7.74 |
| CNC(=O)c1ccc([C@H]2CC[C@H]([C@@H](O)c3c(C4CC4)ccc4cncn34)CC2)cc1 (single isomer, unassigned) [Example D124b] | 5.28 | < 5.00 | 6.01 |
| N#Cc1ccc(N2CCC(C(O)c3c(C4CC4)ccn4cncc34)CC2)cc1 (single isomer, unassigned) [Example C144b] | < 5.00 | < 5.00 | < 5.00 |
| OC(c1c(C2CC2)ccn2cncc12)C1CCN(c2ccc(Cl)c3ncccc23)CC1 (stereo not drawn) [Example C154, (1-(8-chloroquinolin-5-yl)piperidin-4-yl)(7-cyclopropylimidazo[1,5-a]pyridin-8-yl)methanol] | 7.31 | < 5.00 | 7.44 |
| OC(c1c(C2CC2)ccc2cncn12)C1CCC(c2ccc(F)c(Cl)c2)CC1 (stereo not drawn) [Example D129, (4-(3-chloro-4-fluorophenyl)cyclohexyl)(6-cyclopropylimidazo[1,5-a]pyridin-5-yl)methanol] | 6.83 | < 5.00 | 7.28 |
| OC(c1c(C2CC2)ccn2cncc12)C1CCC(c2ccccc2F)CC1 (racemic) [Example C108, (7-cyclopropylimidazo[1,5-a]pyridin-8-yl)(4-(2-fluorophenyl)cyclohexyl)methanol] | 6.49 | < 5.00 | 7.23 |
| OC(c1c(C2CC2)ccc2cncn12)C1CCC(c2ccccc2Cl)CC1 (stereo not drawn) [Example D117] | 6.56 | < 5.00 | 7.32 |
| CC(C)c1ccc2cncn2c1[C@H](O)[C@H]1CC[C@H](c2cccc(Cl)c2)CC1 (single isomer, unassigned) [Example D168b] | 5.19 | < 5.00 | < 5.00 |
| OC(c1c(C2CC2)ccn2cncc12)C1CCN(c2ccc(F)cc2)CC1 (stereo not drawn) [Example C137, (7-cyclopropylimidazo[1,5-a]pyridin-8-yl)(1-(4-fluorophenyl)piperidin-4-yl)methanol] | 6.75 | < 5.00 | 7.10 |
| Oc1ccc([C@H]2CC[C@H]([C@@H](O)c3c(C4CC4)ccc4cncn34)CC2)cc1 [Example D106b, 4-((1R,4r)-4-((R)-(6-cyclopropylimidazo [1,5-a]pyridin-5-yl)(hydroxy)methyl)cyclohexyl)phenol] | 5.59 | < 5.00 | 5.96 |
| OC(c1c(C2CC2)ccc2cncn12)[C@H]1CC[C@H](c2ccc(C(F)(F)F)nc2)CC1 (single isomer, unassigned) [Example D107b] | < 5.00 | < 5.00 | 5.64 |
| OC(c1c(C2CC2)ccc2cncn12)[C@H]1CC[C@H](c2ccc(F)cc2Cl)CC1 (single isomer, unassigned) [Example D130b] | 5.03 | < 5.00 | < 5.00 |
| O[C@@H](c1c(C2CC2)ccn2cncc12)[C@H]1CC[C@H](c2cccc3ccccc32)CC1 (single isomer, unassigned) [Example C121b] | < 5.00 | < 5.00 | 5.82 |
| OC(c1c(C2CC2)ccn2cncc12)C1CCC(c2ccccc2C(F)(F)F)CC1 (stereo not drawn) [Example C116] | 5.96 | < 5.00 | 6.80 |
| OC(c1c(C2CC2)ccn2cncc12)C1CCN(c2ccccn2)CC1 (stereo not drawn) [Example C146, (7-cyclopropylimidazo[1,5-a]pyridin-8-yl)(1-(pyridin-2-yl)piperidin-4-yl)methanol] | 5.65 | < 5.00 | 7.33 |
| O[C@@H](c1c(C2CC2)ccc2cncn12)[C@H]1CC[C@H](c2ccccc2Cl)CC1 (single isomer, unassigned) [Example D117b] | 7.00 | < 5.00 | < 5.00 |

| SMILES | pEC50 [1] | pEC50 [2] | pIC50 [3] |
| --- | --- | --- | --- |
| Cn1cc(-c2ccc(N3CCC(C(O)c4c(C5CC5)ccc5cncn45)CC3)cc2)cn1 (stereo not drawn) [Example D176, (6-cyclopropylimidazo[1,5-a]pyridin-5-yl)(1-(4-(1-methyl-1H-pyrazol-4-yl)phenyl)piperidin-4-yl)methanol] | 6.96 | < 5.00 | 7.60 |
| OC(c1c(C2CC2)ccc2cncn12)C1CCN(c2ccccc2)CC1 (stereo not drawn) [Example D170, (6-cycloropylimidazo[1,5-a]pyridin-5-yl)(1-phenylpiperidin-4-yl)methanol] | 7.37 | < 5.00 | 7.68 |
| OC(c1c(C2CC2)ccc2cncn12)C1CCC(c2ccnc3ccc(F)cc23)CC1 (stereo not drawn) [Example D150, (6-cyclopropylimidazo[1,5-a]pyridin-5-yl)(4-(6-fluoroquinolin-4-yl)cyclohexyl)methanol] | 7.43 | < 5.00 | 7.44 |
| OC(c1c(C2CC2)ccc2cncn12)C1CCC(c2cccc3ncccc23)CC1 (stereo not drawn) [Example D141, (6-cyclopropylimidazo[1,5-a]pyridin-5-yl)(4-(quinolin-5-yl)cyclohexyl)methanol] | 7.68 | < 5.00 | 7.64 |
| O[C@@H](c1c(C2CC2)ccc2cncn12)[C@H]1CC[C@H](c2ccc(F)c(Cl)c2)CC1 (single isomer, unassigned) [Example D129b] | 5.29 | < 5.00 | 5.12 |
| CC(C)c1ccc2cncn2c1[C@@H](O)[C@H]1CC[C@H](c2cccc(Cl)c2)CC1 (single isomer, unassigned) [Example D168a] | 7.60 | < 5.00 | 7.77 |
| COCCOc1ccc(C2CCC(C(O)c3c(C4CC4)ccn4cncc34)CC2)cc1 (racemic) [Example C103, (7-cyclopropylimidazo[1,5-a]pyridin-8-yl)(4-(4-(2-methoxyethoxy)phenyl)cyclohexyl)methanol] | 7.02 | < 5.00 | 7.21 |
| OC(c1c(C2CC2)ccn2cncc12)C1CCC(c2ccc(Cl)cc2)CC1 (racemic) [Example C102, (4-(4-chlorophenyl)cyclohexyl)(7-cyclopropylimidazo[1,5-a]pyridin-8-yl)methanol] | 6.58 | < 5.00 | 7.00 |
| OC(c1cc(Cl)cc2cncn12)C1CCC(c2ccc(Cl)cc2)CC1 (stereo not drawn) [Example E101, (7-chloroimidazo[1,5-a]pyridin-5-yl)(4-(4-chlorophenyl)cyclohexyl)methanol] | 5.20 | < 5.00 | 7.21 |
| OC(c1c(C2CC2)ccc2cncn12)C1CCN(c2ccc(Cl)c3ncccc23)CC1 (stereo not drawn) [Example D178, (1-(8-chloroquinolin-5-yl)piperidin-4-yl)(6-cyclopropylimidazo[1,5-a]pyridin-5-yl)methanol] | 7.40 | < 5.00 | 7.62 |
| O[C@@H](c1c(C2CC2)ccn2cncc12)[C@H]1CC[C@H](c2ccc(F)cc2)CC1 (single isomer, unassigned) [Example C107b] | < 5.00 | < 5.00 | 5.29 |
| OC(c1c(C2CC2)ccn2cncc12)C1CCC(c2ccnc3ccccc23)CC1 (stereo not drawn) [Example C130, (7-cyclopropylimidazo[1,5-a]pyridin-8-yl)(4-(quinolin-4-yl)cyclohexyl)methanol] | 7.03 | < 5.00 | 7.44 |
| O[C@@H](c1c(C2CC2)ccn2cncc12)[C@H]1CC[C@H](c2ccnc3ccccc32)CC1 (single isomer, unassigned) [Example C130b] | 5.21 | < 5.00 | 5.60 |
| OC(c1c(C2CC2)ccc2cncn12)C1CCC(c2cccc3ccccc23)CC1 (stereo not drawn) [Example D135, (6-cyclopropylimidazo[1,5-a]pyridin-5-yl)(4-(naphthalen-1-yl)cyclohexyl)methanol] | 7.49 | < 5.00 | 7.49 |
| O[C@@H](c1c(C2CC2)ccc2cncn12)[C@H]1CC[C@H](c2ccc(Cl)c(F)c2)CC1 (single isomer, unassigned) [Example D128b] | 5.07 | < 5.00 | < 5.00 |
| O[C@@H](c1cc(Cl)cc2cncn12)[C@H]1CC[C@H](c2ccc(Cl)cc2)CC1 (single isomer, unassigned) [Example E101b] | < 5.00 | < 5.00 | 5.55 |
| Cc1cccc(C2CCC(C(O)c3c(C4CC4)ccn4cncc34)CC2)c1 (racemic) [Example C111, (7-cyclopropylimidazo[1,5-a]pyridin-8-yl)(4-(m-tolyl)cyclohexyl)methanol] | 6.70 | < 5.00 | 7.09 |
